US9854804B2, “Antifungal composition comprising polycyclic peptide compound and method for preparing the same” (KOREAN RESEARCH INSTITUTE OF BIOSCIENCE AND BIOTECHNOLOGY, priority 2011, dated 2018)
In brackets after ≈: the same amount, converted by molar mass. Where two headings read alike, the source gives them in different places.

Assays:
MRSA CCARM 3167 = test: Broth microdilution antibacterial activity (MIC); assay type: cell-based, Methicillin-resistant Staphylococcus aureus; details: Staphylococcus aureus
Experimental: (§1) Test strains were maintained in MHB (Mueller Hinton broth), and antibacterial activity was measured using a broth microdilution method. After being incubated overnight, each of the test stains was diluted to a population of 2×100,000 cells/ml, and aliquoted in an amount of 100 μl per well into 96-well plates. Complestatin, neuroprotectin A and positive controls such as vancomycin, oxacillin and nofloxacin were treated at concentration with gradual dilution by 2-fold from maximum concentration of 128 μg/ml. Each compound was diluted in dimethylsulxoside (DMSO), and the concentration of DMSO was adjusted to approximately 1/100 before application. After incubation for 20 hrs, absorbance was read at 650 nm to examine the growth of bacterial cells.

MRSA CCARM 3506 = test: Broth microdilution antibacterial activity (MIC); assay type: cell-based, Methicillin-resistant Staphylococcus aureus; details: Staphylococcus aureus
Experimental: as §1

VRE 11 = test: Antibacterial activity against vancomycin-resistant bacteria (MIC); assay type: cell-based; details: Enterococcus
Experimental: as §1
(§2) The compounds of the present invention, complestatin and neuroprotectin A were examined for antibacterial activity against vacomycin-resistant bacteria in the same manner as in Example 4, and the results are given in Table 4, below.

VRE 7 = test: as above; assay type: cell-based; details: Enterococcus
Experimental: as §1, §2

VRE 3 = test: as above; assay type: cell-based; details: Enterococcus
Experimental: as §1, §2

[1] = tested on: Staphylococcus aureus RN 4220; test: Broth microdilution antibacterial activity (MIC); assay type: cell-based
Experimental: as §1, §2

VRSA 48 = test: Antibacterial activity against vancomycin-resistant bacteria (MIC); assay type: cell-based, Vancomycin-resistant S. aureus; details: Staphylococcus aureus
Experimental: as §1, §2

QRSA CCARM 3505 = test: Broth microdilution antibacterial activity (MIC); assay type: cell-based, Quinolone-resistant Staphylococcus aureus; details: Staphylococcus aureus, CCARM3505
Experimental: as §1

QRSA CCARM 3519 = test: Broth microdilution antibacterial activity (MIC); assay type: cell-based, Quinolone-resistant Staphylococcus aureus; details: Staphylococcus aureus, CCARM3519
Experimental: as §1

[2] = tested on: Bacillus subtilis KCTC 1021; test: Broth microdilution antibacterial activity (MIC); assay type: cell-based; details: KCTC1021
Experimental: as §1

[3] = tested on: Staphylococcus aureus 209; test: Broth microdilution antibacterial activity (MIC); assay type: cell-based
Experimental: as §1

[4] = tested on: Entercoccus faecium KCTC 5191; test: Broth microdilution antibacterial activity (MIC); assay type: cell-based; details: Enterococcus faecium, KCTC5191
Experimental: as §1

[5] = tested on: Entercoccus faecium KCTC 3511; test: Broth microdilution antibacterial activity (MIC); assay type: cell-based; details: Enterococcus faecium, KCTC3511
Experimental: as §1

[6] = tested on: Bacillus cereus KCTC 1661; test: Broth microdilution antibacterial activity (MIC); assay type: cell-based; details: KCTC1661
Experimental: as §1

[7] = tested on: Staphylococcus epidermidis KCTC 3958; test: Broth microdilution antibacterial activity (MIC); assay type: cell-based; details: KCTC3958
Experimental: as §1

[8] = tested on: Vancomycin-resistant S. aureus (VRSA) and Vancomycin-resistant Enterococcus (VRE); test: Antibacterial activity, vancomycin-resistant bacteria of Table 4; assay type: cell-based
Experimental: as §1, §2

[9] = tested on: Staphylococcus aureus, Bacillus subtilis, Bacillus cereus, Enterococcus faecium and Staphylococcus epidermis, MRSA, QRSA; test: Antibacterial activity, summary over the panel of Table 3; assay type: cell-based
Experimental: as §1

[10] = RN4220, Staphylococcus aureus RN 4220, Table 3, read-out: MIC
[11] = Bacillus subtilis KCTC 1021, read-out: MIC
[12] = Staphylococcus aureus 209, 20 hrs incubation, MHB, read-out: MIC
[13] = Entercoccus faecium KCTC 5191, read-out: MIC
[14] = Entercoccus faecium KCTC 3511, read-out: MIC
[15] = Bacillus cereus KCTC 1661, read-out: MIC
[16] = Staphylococcus epidermidis KCTC 3958, read-out: MIC
[17] = against VRSA and VRE (text summary of Table 4), read-out: MIC

| SMILES | MIC (MRSA CCARM 3167; MRSA CCARM 3167, read-out: MIC) | MIC (MRSA CCARM 3506; MRSA CCARM 3506, read-out: MIC) | MIC (VRE 11; VRE 11, read-out: MIC) | MIC (VRE 7; VRE 7, read-out: MIC) | MIC (VRE 3; VRE 3, read-out: MIC) | MIC [1, 10] | MIC ([1]; S. aureus RN 4220, Table 4) | MIC (VRSA 48; VRSA 48, read-out: MIC) | MIC (QRSA CCARM 3505; QRSA CCARM 3505, read-out: MIC) | MIC (QRSA CCARM 3519; QRSA CCARM 3519, read-out: MIC) | MIC [2, 11] | MIC [3, 12] | MIC [4, 13] | MIC [5, 14] | MIC [6, 15] | MIC [7, 16] | MIC [8, 17] | MIC [9] | further results |
| --- | --- | --- | --- | --- | --- | --- | --- | --- | --- | --- | --- | --- | --- | --- | --- | --- | --- | --- | --- |
| CCn1cc(C(=O)O)c(=O)c2cc(F)c(N3CCNCC3)cc21 [Norfloxacin] | 8 µg/mL (≈ 25.1 µM) | 1 µg/mL (≈ 3.13 µM) | 200 µg/mL (≈ 626 µM) | 50 µg/mL (≈ 157 µM) | 50 µg/mL (≈ 157 µM) | 1 µg/mL (≈ 3.13 µM) | 1 µg/mL (≈ 3.13 µM) | 200 µg/mL (≈ 626 µM) | 250 µg/mL (≈ 783 µM) | 125 µg/mL (≈ 391 µM) | 0.25 µg/mL (≈ 0.783 µM) | 0.25 µg/mL (≈ 0.783 µM) | 4 µg/mL (≈ 12.5 µM) | 4 µg/mL (≈ 12.5 µM) | 1 µg/mL (≈ 3.13 µM) | 0.5 µg/mL (≈ 1.57 µM) | – | – | – |
| CN[C@H](CC(C)C)C(=O)N[C@H]1C(=O)N[C@@H](CC(N)=O)C(=O)N[C@H]2C(=O)N[C@H]3C(=O)N[C@H](C(=O)N[C@H](C(=O)O)c4cc(O)cc(O)c4-c4cc3ccc4O)[C@H](O)c3ccc(c(Cl)c3)Oc3cc2cc(c3O[C@@H]2O[C@H](CO)[C@@H](O)[C@H](O)[C@H]2O[C@H]2C[C@](C)(N)[C@H](O)[C@H](C)O2)Oc2ccc(cc2Cl)[C@H]1O [Vancomycin] | – | – | – | – | – | – | 1 µg/mL (≈ 0.69 µM) | – | – | – | – | – | – | – | – | – | – | – | MIC (MRSA CCARM 3167): 2 µg/mL (≈ 1.38 µM); MIC (MRSA CCARM 3506): 0.5 µg/mL (≈ 0.345 µM); MIC (VRE 11; VRE): > 200 µg/mL; MIC (VRE 7; VRE): > 200 µg/mL; MIC (VRE 3; VRE): > 200 µg/mL; MIC ([1]; Staphylococcus aureus, RN4220): 1 µg/mL (≈ 0.69 µM); MIC (VRSA 48; VRSA): > 200 µg/mL; MIC (QRSA CCARM 3505): 1 µg/mL (≈ 0.69 µM); MIC (QRSA CCARM 3519): 1 µg/mL (≈ 0.69 µM); MIC ([8]; VRE): > 200 µg/mL; MIC ([2]; Bacillus subtilis): 0.125 µg/mL (≈ 0.0863 µM); MIC ([3]; Staphylococcus aureus, 209, 20 h): 0.5 µg/mL (≈ 0.345 µM); MIC [4]: 1 µg/mL (≈ 0.69 µM); MIC [5]: 2 µg/mL (≈ 1.38 µM); MIC ([6]; Bacillus cereus): 1 µg/mL (≈ 0.69 µM); MIC ([7]; Staphylococcus epidermidis): 2 µg/mL (≈ 1.38 µM) |
| Cc1onc(-c2ccccc2)c1C(=O)N[C@@H]1C(=O)N2[C@@H]1SC(C)(C)[C@@H]2C(=O)O [Oxacillin] | 500 µg/mL (≈ 1250 µM) | 500 µg/mL (≈ 1250 µM) | > 200 µg/mL | > 200 µg/mL | > 200 µg/mL | 0.25 µg/mL (≈ 0.623 µM) | 0.25 µg/mL (≈ 0.623 µM) | > 200 µg/mL | 0.5 µg/mL (≈ 1.25 µM) | 0.5 µg/mL (≈ 1.25 µM) | 0.25 µg/mL (≈ 0.623 µM) | 0.25 µg/mL (≈ 0.623 µM) | 4 µg/mL (≈ 9.96 µM) | 8 µg/mL (≈ 19.9 µM) | 32 µg/mL (≈ 79.7 µM) | 0.25 µg/mL (≈ 0.623 µM) | > 200 µg/mL | – | – |
| CN1C(=O)C(c2cc(Cl)c(O)c(Cl)c2)NC(=O)C2NC(=O)C(c3cc(Cl)c(O)c(Cl)c3)NC(=O)C(NC(=O)C(=O)c3cc(Cl)c(O)c(Cl)c3)CC3C(=O)Nc4cc(ccc43)-c3cc2cc(c3O)Oc2ccc(cc2)CC1C(=O)NC(C(=O)O)c1ccc(O)cc1 (centres unmarked) [Neuroprotectin A] | 1 µg/mL (≈ 0.744 µM) | 1 µg/mL (≈ 0.744 µM) | 1 µg/mL (≈ 0.744 µM) | 1 µg/mL (≈ 0.744 µM) | 1 µg/mL (≈ 0.744 µM) | 1 µg/mL (≈ 0.744 µM) | 1 µg/mL (≈ 0.744 µM) | 1 µg/mL (≈ 0.744 µM) | 1 µg/mL (≈ 0.744 µM) | 2 µg/mL (≈ 1.49 µM) | 0.5 µg/mL (≈ 0.372 µM) | 2 µg/mL (≈ 1.49 µM) | 2 µg/mL (≈ 1.49 µM) | 2 µg/mL (≈ 1.49 µM) | 0.5 µg/mL (≈ 0.372 µM) | 2 µg/mL (≈ 1.49 µM) | 1 µg/mL (≈ 0.744 µM) | 0.5 to 2 µg/mL (≈ 0.372 to 1.49 µM) | – |
| CN1C(=O)C(c2cc(Cl)c(O)c(Cl)c2)NC(=O)C2NC(=O)C(c3cc(Cl)c(O)c(Cl)c3)NC(=O)C(NC(=O)C(=O)c3cc(Cl)c(O)c(Cl)c3)Cc3c[nH]c4cc(ccc34)-c3cc2cc(c3O)Oc2ccc(cc2)CC1C(=O)NC(C(=O)O)c1ccc(O)cc1 (centres unmarked) [Complestatin] | 1 µg/mL (≈ 0.753 µM) | 1 µg/mL (≈ 0.753 µM) | 1 µg/mL (≈ 0.753 µM) | 1 µg/mL (≈ 0.753 µM) | 1 µg/mL (≈ 0.753 µM) | 1 µg/mL (≈ 0.753 µM) | 1 µg/mL (≈ 0.753 µM) | 1 µg/mL (≈ 0.753 µM) | 1 µg/mL (≈ 0.753 µM) | 2 µg/mL (≈ 1.51 µM) | 0.5 µg/mL (≈ 0.376 µM) | 2 µg/mL (≈ 1.51 µM) | 2 µg/mL (≈ 1.51 µM) | 2 µg/mL (≈ 1.51 µM) | 0.5 µg/mL (≈ 0.376 µM) | 2 µg/mL (≈ 1.51 µM) | 1 µg/mL (≈ 0.753 µM) | 0.5 to 2 µg/mL (≈ 0.376 to 1.51 µM) | – |
